Experimental findings from ChEMBL document CHEMBL1201862, “PubChem BioAssay data set” (2004) are described below.

Holding throughout (assay): NCI-60 cell line screen, 48 h
The test system of test [1] is SK-MEL-5.
Test [2] has as its system MDA-N.
Test [3] relates to IGROV-1.
Test [4] concerns HOP-92.
Test [5] deals with HCT-116.
Test [6] relates to LOX IMVI.
Test [7] has as its system NCI-H522.
For test [8], the system named is A549.
For test [9], the system named is SR.
For test [10], the system named is KM12.
Test [11] deals with 786-0.
Test [12] relates to CAKI-1.
Test [13] relates to NCI-H226.
The subject of test [14] is HCC 2998.
The test system of test [15] is MCF7.
Test [16] has as its system SN12C.
Test [17] deals with TK-10.
Test [18] concerns SNB-75.
Test [19] deals with OVCAR-4.

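Values below derive from 48-hour exposures of cells grown in 96-well plates, with endpoints linearly interpolated between the two concentrations bracketing the appropriate inhibition level. GI50: concentration for 50% inhibition of growth.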 Active and inactive are the calls of the source. No stated cut-off is given here; in the data, active = GI50 up to about 1.1 µM and inactive = higher. A value given as a limit tells only on which side of the number the result lay.

Take `CCOc1cccc(/C=N\c2ccccc2SSc2ccccc2/N=C\c2cccc(OCC)c2O)c1O`: the GI50 in [1] was 2.21 µM (inactive); in test [2] it was 14.2 µM (inactive); in test [3] it was 2.92 µM (inactive); in [4], 11.5 µM (inactive); in [5] it was 1.73 µM (inactive); in test [6], 4.47 µM (inactive). Besides, the GI50 in test [7] was 2.95 µM (inactive); in test [8], 10.7 µM (inactive); in test [9], 4.25 µM (inactive); in test [10], 6.82 µM (inactive); in test [11], 7.6 µM (inactive); in test [12] it was 9.95 µM (inactive). In addition, the GI50 is 6.41 µM (inactive) in [13]; 17.2 µM (inactive) in test [14]; 0.326 µM (active) in test [15]; 9.79 µM (inactive) in [16]; 29 µM (inactive) in test [17]; 19.7 µM (inactive) in test [18]. For the same compound, the GI50 in [19] was 4 µM (inactive).

In the case of `COc1ccc(-c2c(C(C)=O)c(-c3ccccc3)n(C3OC(COC(C)=O)C(OC(C)=O)C(OC(C)=O)C3OC(C)=O)c(=S)c2C#N)cc1` (centres undefined), the GI50 in [1] was > 100 µM (inactive); in test [2], > 100 µM (inactive); in test [3], > 100 µM (inactive); in [4], 19.2 µM (inactive); in test [5], > 100 µM (inactive); in [6], > 100 µM (inactive). For the same compound, the GI50 in test [7], in test [8], in [9], in test [10], in test [11] and in test [12] was > 100 µM (inactive) each time. In addition, the GI50 in [13] is > 100 µM (inactive); in test [14] it was > 100 µM (inactive); in [15] it was > 100 µM (inactive); in test [16], > 100 µM (inactive); in [17] it was > 100 µM (inactive); in test [18] it was 80.9 µM (inactive). Further, the GI50 in test [19] is > 100 µM (inactive).

In the case of `NC(=O)c1csc(C2(O)COC(CO)C2O)n1` (centres undefined), the GI50 in test [1], in test [2], in test [3], in test [4], in test [5] and in test [6] was > 100 µM (inactive) in each case. Moreover, the GI50 in test [7], in test [8], in test [9], in test [10], in [11] and in test [12] was > 100 µM (inactive) in each case. The GI50 in [13], in [14], in [15], in test [16], in [17] and in test [18] was > 100 µM (inactive) each time. Besides, the GI50 in test [19] was > 100 µM (inactive).

Consider `[O-][Cl+3]([O-])([O-])[O-].[O-][Cl+3]([O-])([O-])[O-].c1ccn2c(N3CCOCC3)[n+]3c4ccccc4[n+]4c(N5CCOCC5)n5ccccc5c4c3c2c1`, for which the GI50 was 34 µM (inactive) in [1]; 63.5 µM (inactive) in test [2]; 66.2 µM (inactive) in test [3]; > 100 µM (inactive) in [4]; > 100 µM (inactive) in [5]; > 100 µM (inactive) in [6]. Further, the GI50 in [7] was > 100 µM (inactive); in test [8], > 100 µM (inactive); in test [9], 41.3 µM (inactive); in test [10], 52.1 µM (inactive); in test [11], > 100 µM (inactive); in [12], > 100 µM (inactive). Further, the GI50 was 79.4 µM (inactive) in [13]; > 100 µM (inactive) in test [14]; 56.1 µM (inactive) in test [15]; 17.7 µM (inactive) in test [16]; > 100 µM (inactive) in test [17]; 28.5 µM (inactive) in [18]. Further, in test [19], the GI50 was > 100 µM (inactive).

Take `CN(C)c1ccc(/C=C(\NC(=O)c2ccccc2)C2NC(Cc3c[nH]c4ccccc34)C(=O)O2)cc1` (centres undefined): the GI50 is 8.85 µM (inactive) in [1]; 34.8 µM (inactive) in test [2]; 5.37 µM (inactive) in [3]; > 24.1 µM (inactive) in [4]; 19.2 µM (inactive) in [5]; > 24.8 µM (inactive) in test [6]. The GI50 was 3.46 µM (inactive) in [7]; 5.16 µM (inactive) in [8]; 41.8 µM (inactive) in [9]; 6.71 µM (inactive) in test [10]; 12.2 µM (inactive) in test [11]; > 59 µM (inactive) in test [12]. Further, the GI50 in test [13] was > 100 µM (inactive); in [14] it was 6.12 µM (inactive); in test [15], 6.65 µM (inactive); in [16], > 28.5 µM (inactive); in [18], 39.4 µM (inactive); in test [19], 12.3 µM (inactive).

Consider `C#CC1NC(=O)C1N(CC)CC` (centres undefined), for which the GI50 in test [1], in test [2], in test [3], in test [4], in test [5] and in test [6] was > 100 µM (inactive) throughout. The GI50 is > 100 µM (inactive) in [7]; > 100 µM (inactive) in test [9]; > 100 µM (inactive) in test [10]; > 100 µM (inactive) in [11]; 86.5 µM (inactive) in [12]; > 100 µM (inactive) in test [13]. Also, the GI50 is > 100 µM (inactive) in [14]; > 100 µM (inactive) in test [15]; > 100 µM (inactive) in test [16]; > 100 µM (inactive) in [17]; 14.6 µM (inactive) in test [18]; > 100 µM (inactive) in [19].

`COc1cc(-c2oc3ccccc3c(=O)c2O)cc(OC)c1OC`: the GI50 in test [1] was 6.58 µM (inactive); in [2], > 26.1 µM (inactive); in test [3] it was 6.9 µM (inactive); in test [4], 4.06 µM (inactive); in test [5], 10.3 µM (inactive); in test [6], 6.24 µM (inactive). Further, the GI50 in test [7] was 11.4 µM (inactive); in test [8], 9.02 µM (inactive); in test [9] it was 3.03 µM (inactive); in test [10], > 100 µM (inactive); in test [11], 9.75 µM (inactive); in test [12] it was 26.2 µM (inactive). Besides, the GI50 was > 100 µM (inactive) in test [14]; > 100 µM (inactive) in test [15]; > 100 µM (inactive) in test [16]; 29 µM (inactive) in [17]; 6.82 µM (inactive) in test [18]; 7 µM (inactive) in test [19].

As for `COc1ccc(/C=c2/[nH]c(=O)/c(=C\c3ccc(OCc4ccccc4)cn3)[nH]c2=O)cc1`, the GI50 in test [1] is 50.2 µM (inactive); in test [2], 19.8 µM (inactive); in test [4], 23.2 µM (inactive); in [5], 48 µM (inactive); in test [6], 82.4 µM (inactive); in test [7], 71.4 µM (inactive). The GI50 in [8] is 50.2 µM (inactive); in test [9], 20.8 µM (inactive); in [10] it was 47.1 µM (inactive); in test [11], 49.9 µM (inactive); in [12], > 100 µM (inactive); in [13], 67.9 µM (inactive). Moreover, the GI50 was > 100 µM (inactive) in test [14]; 46 µM (inactive) in [15]; > 100 µM (inactive) in [16]; 71.9 µM (inactive) in [17]; 19.3 µM (inactive) in [18]; > 100 µM (inactive) in test [19].

With `Fc1ccc(C(OCCN2CCN(CCCCl)CC2)c2ccc(F)cc2)cc1`, the GI50 in [1] was 18 µM (inactive); in [2] it was 20.7 µM (inactive); in [3] it was 26 µM (inactive); in test [4], 12.5 µM (inactive); in test [5] it was 19.5 µM (inactive); in test [6] it was 16.8 µM (inactive). Further, the GI50 in [7] is 18.7 µM (inactive); in test [8], 35.5 µM (inactive); in [9], 18.8 µM (inactive); in [10] it was 18.3 µM (inactive); in test [11] it was 28.4 µM (inactive); in test [12] it was 31 µM (inactive). Besides, the GI50 in test [13] is 20.5 µM (inactive); in test [14] it was 18.5 µM (inactive); in [15] it was 21.6 µM (inactive); in test [16], 25.3 µM (inactive); in [17], 36.7 µM (inactive); in test [19] it was 24.9 µM (inactive).

In the case of `O=C1CCCC1CC(CN1CCOCC1)Sc1nnnn1-c1ccccc1` (centres undefined), the GI50 in [1], in test [2], in [3], in test [4], in test [5] and in [6] was > 100 µM (inactive) in each case. The GI50 is > 100 µM (inactive) in [7]; > 100 µM (inactive) in [8]; > 100 µM (inactive) in test [9]; > 100 µM (inactive) in test [10]; > 100 µM (inactive) in [11]; 16.8 µM (inactive) in [12]. Also, the GI50 in test [13] is > 100 µM (inactive); in [14], > 100 µM (inactive); in [15], 18.2 µM (inactive); in test [16], > 100 µM (inactive); in test [18] it was 21.3 µM (inactive); in [19], > 100 µM (inactive).
